Paper PMC7139549, “TLD1433 Photosensitizer Inhibits Conjunctival Melanoma Cells in Zebrafish Ectopic and Orthotopic Tumour Models” (Cancers, 2020)
Where two headings read alike, the source gives them in different places.

What was measured:
Type in all cases: cell-based, Human
[1] = test system: CRMM2 conjunctival melanoma cell line; test: SRB cell viability assay, CRMM2
Procedure: (§1) TLD1433 is known to generate reactive oxygen species (ROS) with high quantum efficacy in many cancer cell lines. However, there is no report of the in vitro toxicity of this compound in eye melanoma (UM) cell lines. We determined the cell viability of three conjunctival melanoma cell lines (CRMM1, CRMM2 and CM2005.1), and three uveal melanoma cell lines (OMM1, OMM2.5, MEL270) in the presence of TLD1433, both in the dark or under green light irradiation (21 mW/cm^2, 19 J/cm^2, 520 nm, 15 min), and compared this viability to epidermoid carcinoma A431 and cutaneous melanoma A375 cell lines under the same conditions. The protocol used was based on previous work from the Bonnet group, and differed slightly from recommendations from McFarland et al.. […] The effective concentration (EC50) values, i.e., the concentration required to reduce cell viability by 50% compared to untreated wells, were assessed by fitting the dose-response curves with a Hill equation. The phototoxicity index (PI), defined as the ratio of the dark EC50 to the light EC50, was also calculated and represents the amplification of TLD1433 activity with a light trigger. […]
(§2) Figure 2 Cell viability after TLD1433 treatment of eight tumour cell lines (CRMM1, CRMM2, CM2005.1, OMM1, OMM2.5, MEL270, A431, A375). […] The absorbance of Sulforhodamine B in solution was measured at 520 nm. […]
(§3) At day 0, cells were detached using 1mL of trypsin, resuspended in 4 mL of media and transferred to a 15 mL corning falcon tube. Cells were counted using trypan blue and BioRad® TC20™ automated cell counter (Figure 11). Dilutions of 6000 (CRMM1), 6000 (CRMM2), 8000 (CM2005.1), 6000 (OMM1), 6000 (OMM2.5), 6000 (MEL270) 8000 (A431), and 4000 (A375) cells/well were calculated from each cell suspension at a final volume of 6 mL using the following formula: Vc=(Vt×10C)/Lc where Vt = total volume of solution, C = number of cells per well/per 100 μL and Lc = live cells count (cells/mL). […] Next day, the dye was dissolved using Tri-base (0.25%) and absorbance of SRB at 510 nm was recorded from each well using a Tecan plate reader. […]

[2] = test system: CM2005.1 conjunctival melanoma cell line; test: SRB cell viability assay, CM2005.1
Procedure: as §1, §2, §3

eye melanoma cells = test: SRB cell viability assay, eye melanoma cells
Procedure: TLD1433 is known to generate reactive oxygen species (ROS) with high quantum efficacy in many cancer cell lines. However, there is no report of the in vitro toxicity of this compound in eye melanoma (UM) cell lines. We determined the cell viability of three conjunctival melanoma cell lines (CRMM1, CRMM2 and CM2005.1), and three uveal melanoma cell lines (OMM1, OMM2.5, MEL270) in the presence of TLD1433, both in the dark or under green light irradiation (21 mW/cm^2, 19 J/cm^2, 520 nm, 15 min), and compared this viability to epidermoid carcinoma A431 and cutaneous melanoma A375 cell lines under the same conditions. […] The phototoxicity index (PI), defined as the ratio of the dark EC50 to the light EC50, was also calculated and represents the amplification of TLD1433 activity with a light trigger. […]
At day 0, cells were detached using 1mL of trypsin, resuspended in 4 mL of media and transferred to a 15 mL corning falcon tube. Cells were counted using trypan blue and BioRad® TC20™ automated cell counter (Figure 11). Dilutions of 6000 (CRMM1), 6000 (CRMM2), 8000 (CM2005.1), 6000 (OMM1), 6000 (OMM2.5), 6000 (MEL270) 8000 (A431), and 4000 (A375) cells/well were calculated from each cell suspension at a final volume of 6 mL using the following formula: Vc=(Vt×10C)/Lc where Vt = total volume of solution, C = number of cells per well/per 100 μL and Lc = live cells count (cells/mL). […]

Q: How did the EC50 ([1]; CRMM2, dark, 24 h treatment, SRB, read-out: EC50, dark) turn out when Cc1ccnc(-c2cc(C)ccn2)c1.Cc1ccnc(-c2cc(C)ccn2)c1.[Cl-].[Cl-].[Ru+2].c1csc(-c2ccc(-c3ccc(-c4nc5c6cccnc6c6ncccc6c5[nH]4)s3)s2)c1 [TLD1433] was run?
A: 1000 nM

Q: What about the EC50 ([1]; CRMM2, green light 520 nm, 15 min, 21 mW/cm^2, 19 J.cm^−2, DLI 24 h, read-out: EC50,light) of the same molecule?
A: 4.8 nM

Q: What about the “PI (photo index)” value ([1]; CRMM2, ratio of dark and light EC50, 19 J.cm^−2 green light) of the same molecule?
A: 210

Q: And the EC50 ([2]; CM2005.1, dark, 24 h treatment, SRB, read-out: EC50, dark)?
A: 1100 nM

Q: And the EC50 ([2]; CM2005.1, green light 520 nm, 15 min, 21 mW/cm^2, 19 J.cm^−2, DLI 24 h, read-out: EC50,light)?
A: 5.8 nM

Q: What about the “PI (photo index)” value ([2]; CM2005.1, ratio of dark and light EC50, 19 J.cm^−2 green light) of the same molecule?
A: 190

Q: And the EC50 (eye melanoma cells; dark, read-out: EC50 (dark toxicity))?
A: ~1000 nM

Q: What about the “EC50 upon light activation (in words)” value (eye melanoma cells; green light 19 J/cm^2) of the same molecule?
A: in the nanomolar regime
